The text below walks through data of patent publication US10281476B2, “Methods to identify modulators of RyR calcium channels” (REGENTS OF THE UNIVERSITY OF MINNESOTA, priority 2013, dated 2019).

The term Kd denotes the concentration at which binding is half-saturated. Low values mean tighter binding, high ones weaker binding.

Test [1] has as its system permeabilized cardiomyocytes. The experiment in a line: Ca2+ sparks and SR Ca2+ content in permeabilized myocytes. It is filed as cell-based, rat. How it is done:
Myocytes were permeabilized with saponin (50μg/mL) for 60 seconds and placed in internal solution composed of EGTA 0.5 mmol/L; HEPES 10 mmol/L; Kaspartate 120 mmol/L; ATP 5 mmol/L; free MgCl2 1 mmol/L, reduced glutathione 10 mmol/L; and free [Ca2+] 50nmol/L (calculated using MaxChelator), creatine phosphokinase 5 U/mL, phosphocreatine 10 mmol/L, dextran 4% Fluo-4 0.025 mmol/L, pH 7.2. Ca2+sparks were recorded by a laser scanning confocal microscope (RADIANCE2000™ MP, Bio-Rad, UK) as previously described (Li et al., Circ Res, 2002; 90:309-316). Fluo-4 was excited at 488 nm and emission was recorded using 500/530 nm bandpass filter. To assess SR Ca2+content, caffeine (15 mmol/L) was rapidly perfused. Ca2+spark were analyzed as using SparkMaster (Picht et al., Am J Physiol Cell Physiol, 2007; 293:C1073-C1081).
Next, we asked whether RyR2 is activated by DPc10 and whether FKBP12.6 or CaM can prevent this. We assessed Ca^2+ sparks in permeabilized myocytes perfused with internal solution containing 50 nmol/L free Ca^2+ plus 1 μmol/L autocamtide-2-related inhibitory peptide (to inhibit CaMKII activity). Line-scan images were recorded after 3-hour incubations under control conditions and in the presence of 5 μmol/L DPc10, with or without 1 μmol/L CaM or 100 nmol/L FKBP12.6 (FIG. 14D).

A further test has as its target RyR2 (Rattus norvegicus, UniProt B0LPN4). Kind of test: Steady-state F-DPc10 binding at the Z-line of saponin-permeabilized myocytes (confocal). Also noted: endogenous in cells; host or cells: saponin-permeabilized adult rat ventricular myocytes. As to the method: Rat ventricular myocytes were isolated and permeabilized as previously described (Li et al., Circ Res, 2002; 90:309-316). All procedures were performed according to the Guiding Principles in the Care and Use of the Animals and were approved by the Council of American Physiological Society. DPc10, FKBP12.6, and CaM were labeled at specific sites with small fluorescence probes, similar to our previous studies (Guo et al., Circ Res, 2010; 106:1743-1752; Cornea et al., PNAS USA, 2009; 106:6128-6133; Guo et al., Biophys J, 2011; 101:2170-2177).
Confocal images was measured using a Biorad RADIANCE2100™ laser scanning confocal microscope equipped with an Argon ion laser, Green HeNe laser and with a Nikon Fluo x40 oil lens. FRET (fluorescence resonance energy transfer) experiments between CaM and DPc10, and FKBP12.6 and DPc10 were performed using an Olympus FV1000 confocal microscope. All experiments were done at room temperature.
Myocytes were exposed to […] F-DPc10, with intracellular [Ca^2+] ([Ca^2+]i) set at 50 nmol/L. F-DPc10 fluorescence is highest at the Z-lines, where RyR2 is concentrated, forming a typical cross-striated pattern. The difference between fluorescence intensity at the Z-line (Fz) and M-line (FM) is taken to represent [F-DPc10] specifically bound at the myocyte Z-line. We calibrated the bound [F-DPc10] in permeabilized myocytes using the linear relationship between F-DPc10 fluorescence and bath [F-DPc10] (FIG. 7B). […] To further test whether this Z-line-associated F-DPc10 represents RyR2-bound F-DPc10, we measured FRET between FKBP12.6 (known to specifically bind to RyR2 with subnanomolar affinity) (Guo et al., Circ Res, 2010; 106:1743-1752) and F-DPc10. […] Donor (AF568-FKBP12.6) fluorescence at the Z-line was quenched by HF647-DPc10, but the M-line signal was not (FIG. 9B). […]

Where [2] appears, read: DPc10 5 μmol/L, FKBP12.6 100 nmol/L, CaM 1 μmol/L.

Where no end group is shown, it is not given here.

Chain of RyR2 (B0LPN4 whole entry): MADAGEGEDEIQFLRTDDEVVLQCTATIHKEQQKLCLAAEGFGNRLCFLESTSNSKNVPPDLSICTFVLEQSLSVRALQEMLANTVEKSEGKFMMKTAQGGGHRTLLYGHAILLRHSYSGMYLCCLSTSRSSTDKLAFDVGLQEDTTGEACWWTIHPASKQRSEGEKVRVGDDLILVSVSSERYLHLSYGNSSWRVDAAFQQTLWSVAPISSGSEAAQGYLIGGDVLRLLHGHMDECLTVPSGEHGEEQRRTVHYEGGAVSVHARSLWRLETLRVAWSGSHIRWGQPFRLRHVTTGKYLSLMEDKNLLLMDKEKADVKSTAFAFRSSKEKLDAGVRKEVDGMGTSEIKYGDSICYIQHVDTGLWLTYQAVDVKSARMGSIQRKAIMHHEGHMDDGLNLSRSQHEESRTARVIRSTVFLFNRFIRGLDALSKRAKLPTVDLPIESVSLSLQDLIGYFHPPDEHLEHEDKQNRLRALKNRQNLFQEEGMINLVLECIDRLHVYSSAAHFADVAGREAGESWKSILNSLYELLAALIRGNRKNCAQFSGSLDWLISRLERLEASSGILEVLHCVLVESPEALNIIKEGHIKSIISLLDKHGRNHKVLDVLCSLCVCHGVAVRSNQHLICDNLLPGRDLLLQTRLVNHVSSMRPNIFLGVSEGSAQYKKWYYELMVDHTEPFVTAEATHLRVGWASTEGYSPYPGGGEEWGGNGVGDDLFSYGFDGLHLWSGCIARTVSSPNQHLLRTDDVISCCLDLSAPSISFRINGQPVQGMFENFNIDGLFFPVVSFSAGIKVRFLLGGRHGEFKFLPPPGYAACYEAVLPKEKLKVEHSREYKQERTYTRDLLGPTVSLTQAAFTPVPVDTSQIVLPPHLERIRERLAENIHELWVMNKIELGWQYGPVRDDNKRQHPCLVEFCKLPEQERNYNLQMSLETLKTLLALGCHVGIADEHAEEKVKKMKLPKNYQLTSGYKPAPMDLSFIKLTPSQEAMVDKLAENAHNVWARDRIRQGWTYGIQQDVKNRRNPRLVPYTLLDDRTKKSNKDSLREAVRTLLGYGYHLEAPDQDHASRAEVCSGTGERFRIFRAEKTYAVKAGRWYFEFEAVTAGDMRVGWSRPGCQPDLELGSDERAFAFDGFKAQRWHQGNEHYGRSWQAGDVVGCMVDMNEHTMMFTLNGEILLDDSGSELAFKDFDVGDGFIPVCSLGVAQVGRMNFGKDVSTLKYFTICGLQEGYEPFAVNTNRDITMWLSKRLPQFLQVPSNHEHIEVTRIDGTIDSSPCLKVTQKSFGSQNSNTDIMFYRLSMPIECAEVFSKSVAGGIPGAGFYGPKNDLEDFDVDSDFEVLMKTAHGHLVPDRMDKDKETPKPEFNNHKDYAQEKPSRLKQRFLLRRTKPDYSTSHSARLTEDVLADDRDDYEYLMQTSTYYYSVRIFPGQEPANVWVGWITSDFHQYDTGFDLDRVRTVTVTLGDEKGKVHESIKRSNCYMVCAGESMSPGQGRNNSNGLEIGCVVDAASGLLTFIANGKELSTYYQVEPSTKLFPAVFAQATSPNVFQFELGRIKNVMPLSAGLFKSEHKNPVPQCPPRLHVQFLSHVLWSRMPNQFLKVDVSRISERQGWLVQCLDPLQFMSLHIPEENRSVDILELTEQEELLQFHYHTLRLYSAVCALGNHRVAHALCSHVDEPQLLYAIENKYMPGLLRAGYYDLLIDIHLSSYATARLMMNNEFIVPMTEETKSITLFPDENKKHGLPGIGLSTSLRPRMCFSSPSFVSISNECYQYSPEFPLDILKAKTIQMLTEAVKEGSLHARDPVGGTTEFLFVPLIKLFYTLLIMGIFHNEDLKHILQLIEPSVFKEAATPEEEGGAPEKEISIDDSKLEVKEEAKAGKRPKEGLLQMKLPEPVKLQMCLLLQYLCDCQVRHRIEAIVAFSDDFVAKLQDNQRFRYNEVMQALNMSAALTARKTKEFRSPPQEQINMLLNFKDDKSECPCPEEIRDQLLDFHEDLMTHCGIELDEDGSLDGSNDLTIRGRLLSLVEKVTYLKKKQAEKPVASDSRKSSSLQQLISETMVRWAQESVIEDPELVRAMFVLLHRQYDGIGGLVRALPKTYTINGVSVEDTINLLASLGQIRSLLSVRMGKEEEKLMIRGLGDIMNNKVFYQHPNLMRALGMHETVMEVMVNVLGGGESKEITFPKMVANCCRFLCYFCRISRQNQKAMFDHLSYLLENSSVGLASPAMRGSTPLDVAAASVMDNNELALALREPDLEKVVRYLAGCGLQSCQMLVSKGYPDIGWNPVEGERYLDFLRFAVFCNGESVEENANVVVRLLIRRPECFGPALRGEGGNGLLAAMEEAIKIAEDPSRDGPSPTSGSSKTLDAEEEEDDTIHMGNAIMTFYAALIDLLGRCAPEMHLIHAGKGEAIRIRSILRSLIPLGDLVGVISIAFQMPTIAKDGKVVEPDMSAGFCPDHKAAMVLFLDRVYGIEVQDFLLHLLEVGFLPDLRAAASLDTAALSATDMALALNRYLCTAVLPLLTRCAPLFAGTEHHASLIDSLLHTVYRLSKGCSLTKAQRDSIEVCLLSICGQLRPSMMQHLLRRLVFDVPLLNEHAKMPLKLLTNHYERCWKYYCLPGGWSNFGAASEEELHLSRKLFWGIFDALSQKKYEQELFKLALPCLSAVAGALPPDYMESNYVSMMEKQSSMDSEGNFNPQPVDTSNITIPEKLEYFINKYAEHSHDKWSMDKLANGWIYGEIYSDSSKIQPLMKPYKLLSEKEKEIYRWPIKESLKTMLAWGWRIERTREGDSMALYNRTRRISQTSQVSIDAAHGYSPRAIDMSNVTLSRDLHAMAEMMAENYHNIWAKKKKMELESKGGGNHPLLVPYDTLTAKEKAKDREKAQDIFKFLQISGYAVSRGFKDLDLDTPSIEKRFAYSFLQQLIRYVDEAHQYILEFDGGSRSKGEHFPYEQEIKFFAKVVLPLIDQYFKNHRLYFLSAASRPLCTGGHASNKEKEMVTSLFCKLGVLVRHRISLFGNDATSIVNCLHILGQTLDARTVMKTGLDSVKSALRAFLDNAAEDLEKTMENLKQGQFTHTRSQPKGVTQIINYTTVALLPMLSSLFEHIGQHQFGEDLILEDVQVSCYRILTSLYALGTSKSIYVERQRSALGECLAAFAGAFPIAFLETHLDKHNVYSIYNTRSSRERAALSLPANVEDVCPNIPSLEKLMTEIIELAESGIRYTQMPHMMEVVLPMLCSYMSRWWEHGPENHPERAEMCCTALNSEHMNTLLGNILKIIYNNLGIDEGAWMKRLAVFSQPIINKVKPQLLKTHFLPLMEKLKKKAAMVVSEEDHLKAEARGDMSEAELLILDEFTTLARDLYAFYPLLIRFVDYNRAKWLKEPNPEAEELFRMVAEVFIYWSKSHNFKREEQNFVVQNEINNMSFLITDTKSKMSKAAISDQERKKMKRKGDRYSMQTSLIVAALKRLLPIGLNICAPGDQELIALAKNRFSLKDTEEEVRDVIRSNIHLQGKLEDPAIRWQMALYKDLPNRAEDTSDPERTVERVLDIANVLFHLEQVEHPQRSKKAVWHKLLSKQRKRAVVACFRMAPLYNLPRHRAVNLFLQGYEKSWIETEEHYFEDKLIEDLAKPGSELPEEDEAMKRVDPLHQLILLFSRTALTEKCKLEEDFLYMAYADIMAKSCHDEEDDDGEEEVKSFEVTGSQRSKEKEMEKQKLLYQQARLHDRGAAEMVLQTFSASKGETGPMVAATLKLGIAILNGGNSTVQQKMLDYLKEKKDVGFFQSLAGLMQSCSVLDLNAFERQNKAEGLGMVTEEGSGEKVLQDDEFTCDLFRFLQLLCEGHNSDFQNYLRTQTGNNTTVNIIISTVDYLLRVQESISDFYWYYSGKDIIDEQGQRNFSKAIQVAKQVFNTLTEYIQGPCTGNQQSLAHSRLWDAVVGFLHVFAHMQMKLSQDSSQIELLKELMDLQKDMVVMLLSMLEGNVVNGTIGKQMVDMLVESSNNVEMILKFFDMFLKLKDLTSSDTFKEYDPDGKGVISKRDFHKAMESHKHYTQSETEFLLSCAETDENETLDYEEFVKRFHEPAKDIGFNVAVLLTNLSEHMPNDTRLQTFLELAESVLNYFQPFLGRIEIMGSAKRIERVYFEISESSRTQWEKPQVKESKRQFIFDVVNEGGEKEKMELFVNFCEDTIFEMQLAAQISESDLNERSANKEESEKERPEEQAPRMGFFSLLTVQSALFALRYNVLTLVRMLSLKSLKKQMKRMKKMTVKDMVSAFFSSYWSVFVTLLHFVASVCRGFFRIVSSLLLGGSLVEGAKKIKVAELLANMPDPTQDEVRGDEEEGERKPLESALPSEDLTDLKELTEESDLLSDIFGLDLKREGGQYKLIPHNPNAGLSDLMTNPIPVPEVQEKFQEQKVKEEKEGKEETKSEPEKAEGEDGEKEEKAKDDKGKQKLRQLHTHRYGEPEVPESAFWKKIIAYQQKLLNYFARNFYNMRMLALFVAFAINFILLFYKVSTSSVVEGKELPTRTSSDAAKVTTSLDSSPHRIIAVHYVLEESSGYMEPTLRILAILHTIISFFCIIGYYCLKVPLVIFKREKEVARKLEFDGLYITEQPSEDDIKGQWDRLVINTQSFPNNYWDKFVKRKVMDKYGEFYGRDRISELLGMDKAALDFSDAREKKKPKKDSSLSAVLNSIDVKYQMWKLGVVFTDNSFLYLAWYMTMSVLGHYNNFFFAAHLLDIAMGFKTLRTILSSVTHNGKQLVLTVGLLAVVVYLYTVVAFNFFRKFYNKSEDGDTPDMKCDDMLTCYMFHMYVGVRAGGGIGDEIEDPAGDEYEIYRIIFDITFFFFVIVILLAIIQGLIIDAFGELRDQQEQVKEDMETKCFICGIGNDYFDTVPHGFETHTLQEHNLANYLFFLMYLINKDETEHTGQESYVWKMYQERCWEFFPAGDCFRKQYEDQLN

With “GFCPDHKAAMVLFLDRVYGIEVQDFLLHLLEVGFLP [DPc10]”, in test [1] (5 μmol/L DPc10, 3-hour incubation, 50 nmol/L free Ca2+, 1 μmol/L AIP), the “Ca2+ spark frequency (CaSpF) vs control” value was “robustly increased”. Besides, in test [1] (setting [2]), the “Ca2+ spark FDHM” value was found to be 58.5 ± 1.00 ms, the “Ca2+ spark FWHM” value worked out at 1.34 ± 0.01 μm and the “Ca2+ spark Peak (F/F0)” value is recorded as 0.475 ± 0.004 F/F0. The “SR Ca2+ content vs control (caffeine-induced Ca2+ release)” value in test [1] (permeabilized myocytes) was “significantly lower”. For the same sequence, the equilibrium dissociation constant (Kd) on RyR2 is ~0.5 µM. This sequence returned a Bmax value at RyR2 (summary in Discussion) of 1.6 µmol/L.
